How the values were obtained:
[1] = test system: calcineurin mediated signaling; details: cited from earlier work
Sprague-Dawley Rats = experiment: Multiple Oral Gavage Toxicity Study of Cyclosporin H in Sprague-Dawley Rats with Toxicokinetics, hematology; type: in vivo; details: animals to which CsH had been administered (see Table 1)
hFPR = biological target: T1, hFPR (Homo sapiens, UniProt P21462); experiment: radionuclide binding competition assay using fMLF peptide as internal standard
T1 sequence (P21462 1-350): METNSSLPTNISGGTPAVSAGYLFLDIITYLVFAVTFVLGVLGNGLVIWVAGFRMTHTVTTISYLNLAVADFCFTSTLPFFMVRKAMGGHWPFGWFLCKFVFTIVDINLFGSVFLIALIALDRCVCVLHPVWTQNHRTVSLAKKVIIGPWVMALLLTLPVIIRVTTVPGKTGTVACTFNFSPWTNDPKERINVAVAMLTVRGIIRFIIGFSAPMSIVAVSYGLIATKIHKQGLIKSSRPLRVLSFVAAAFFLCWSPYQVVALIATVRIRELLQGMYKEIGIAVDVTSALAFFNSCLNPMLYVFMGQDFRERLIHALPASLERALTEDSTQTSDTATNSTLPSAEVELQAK
Source text: Provided herein is the use of formyl peptide receptor antagonists in the therapy of diseases or disorders involving inappropriate, exaggerated, or prolonged neutrophil response (i.e. recruitment and/or activation). […] Thus the cyclosporins of this invention include dihydroCsH, as well as compounds of Formula I that maintain FPR inhibitory activity.

Structure (SMILES) | effect on calcineurin mediated signaling [1] | circulating eosinophils (Sprague-Dawley Rats) | IC50 (hFPR) [nM]
C/C=C/C[C@@H](C)[C@@H](O)[C@H]1C(=O)N[C@@H](CC)C(=O)N(C)CC(=O)N(C)[C@@H](CC(C)C)C(=O)N[C@@H](C(C)C)C(=O)N(C)[C@@H](CC(C)C)C(=O)N[C@@H](C)C(=O)N[C@H](C)C(=O)N(C)[C@@H](CC(C)C)C(=O)N(C)[C@@H](CC(C)C)C(=O)N(C)[C@H](C(C)C)C(=O)N1C [CsH, Cyclosporine H] | no effect | significant decrease | –
CCCC[C@@H](C)[C@@H](O)[C@H]1C(=O)N[C@@H](CC)C(=O)N(C)CC(=O)N(C)[C@@H](CC(C)C)C(=O)N[C@@H](C(C)C)C(=O)N(C)[C@@H](CC(C)C)C(=O)N[C@@H](C)C(=O)N[C@H](C)C(=O)N(C)[C@@H](CC(C)C)C(=O)N(C)[C@@H](CC(C)C)C(=O)N(C)[C@H](C(C)C)C(=O)N1C [dihydroCsH, Dihydrocyclosporin H] | – | – | 7.99
